Experiments:
Assay in all cases: Test F preemergence
Conditions in all cases: 21 days, scale 0 to 100
surinam grass = assay type: in vivo, Brachiaria decumbens
Text: (§1) Seeds of plant species selected from bermudagrass (Cynodon dactylon), surinam grass (Brachiaria decumbens), large (Lg) crabgrass (Digitaria sanguinalis), crabgrass, naked (naked crabgrass, Digitaria nuda), foxtail, green (green foxtail, Setaria viridis), johnsongrass (Sorghum halepense), kochia (Kochia scoparia), morningglory (pitted morningglory, Ipomoea lacunosa), nutsedge, purple (purple nutsedge, Cyperus rotundus), ragweed (common ragweed, Ambrosia elatior), mustard, black (black mustard, Brassica nigra), guineagrass (Panicum maximum), dallisgrass (Paspalum dilatatum), barnyardgrass (Echinochloa crus-galli), sandbur (southern sandbur, Cenchrus echinatus), sowthistle (common sowthistle, Sonchus oleraceous), Italian ryegrass (Lolium multiflorum), signalgrass (broadleaf signalgrass, Brachiaria platyphylla), dayflower (Virginia (VA) dayflower, Commelina virginica), bluegrass (annual bluegrass, Poa annua), quackgrass (Elytrigia repens), mallow (common mallow, Malva sylvestris), buckwheat, wild (wild buckwheat, Polygonum convolvulus), leafy spurge (Euphorbia esula), chickweed (common chickweed, Stellaria media), wild poinsettia (Euphorbia heterophylla), and pigweed (Amaranthus retroflexus) were planted into a blend of loam soil and sand and treated preemergence with test chemicals formulated in a non-phytotoxic solvent mixture which included a surfactant.
(§2) Treated plants and controls were maintained in a greenhouse for 21 days, after which time all species were compared to controls and visually evaluated. Plant response ratings, summarized in Table F, are based on a scale of 0 to 100 where 0 is no effect and 100 is complete control. A dash (-) response means no test result.

dallisgrass = assay type: in vivo, Paspalum dilatatum
Text: as §1, §2

sowthistle = assay type: in vivo, Sonchus oleraceous
Text: as §1, §2

dayflower = assay type: in vivo, Commelina virginica
Text: as §1, §2

bluegrass = assay type: in vivo, Poa annua
Text: as §1, §2

quackgrass = assay type: in vivo, Elytrigia repens
Text: as §1, §2

leafy spurge = assay type: in vivo, Euphorbia esula
Text: as §1, §2

chickweed = assay type: in vivo, Stellaria media
Text: as §1, §2

N#Cc1cccc(Oc2ncc(F)cn2)c1-n1cc(C(F)(F)F)cn1 [Compound 79, 3-[(5-fluoro-2-pyrimidinyl)oxy]-2-[4-(trifluoromethyl)-1H-pyrazol-1-yl]benzonitrile]
Plant response rating, Surinam Grass (surinam grass; 16 g ai/ha): 75
Plant response rating, Surinam Grass (surinam grass; 31 g ai/ha): 90
Plant response rating, Surinam Grass (surinam grass; 62 g ai/ha): 95
Plant response rating, Surinam Grass (surinam grass; 125 g ai/ha): 100
Plant response rating, Surinam Grass (surinam grass; 250 g ai/ha): 100
Plant response rating, Dallisgrass (dallisgrass; 16 g ai/ha): 65
Plant response rating, Dallisgrass (dallisgrass; 31 g ai/ha): 98
Plant response rating, Dallisgrass (dallisgrass; 62 g ai/ha): 100
Plant response rating, Dallisgrass (dallisgrass; 125 g ai/ha): 100
Plant response rating, Dallisgrass (dallisgrass; 250 g ai/ha): 100
Plant response rating, Sowthistle (sowthistle; 16 g ai/ha): 100
Plant response rating, Sowthistle (sowthistle; 31 g ai/ha): 100
Plant response rating, Sowthistle (sowthistle; 62 g ai/ha): 100
Plant response rating, Sowthistle (sowthistle; 125 g ai/ha): 100
Plant response rating, Sowthistle (sowthistle; 250 g ai/ha): 100
Plant response rating, Dayflower, VA (dayflower; 16 g ai/ha): 95
Plant response rating, Dayflower, VA (dayflower; 31 g ai/ha): 98
Plant response rating, Dayflower, VA (dayflower; 62 g ai/ha): 100
Plant response rating, Dayflower, VA (dayflower; 125 g ai/ha): 100
Plant response rating, Dayflower, VA (dayflower; 250 g ai/ha): 100
Plant response rating, Bluegrass (bluegrass; 16 g ai/ha): 50
Plant response rating, Bluegrass (bluegrass; 31 g ai/ha): 75
Plant response rating, Bluegrass (bluegrass; 62 g ai/ha): 98
Plant response rating, Bluegrass (bluegrass; 125 g ai/ha): 100
Plant response rating, Bluegrass (bluegrass; 250 g ai/ha): 100
Plant response rating, Quackgrass (quackgrass; 16 g ai/ha): 40
Plant response rating, Quackgrass (quackgrass; 31 g ai/ha): 70
Plant response rating, Quackgrass (quackgrass; 62 g ai/ha): 95
Plant response rating, Quackgrass (quackgrass; 125 g ai/ha): 98
Plant response rating, Quackgrass (quackgrass; 250 g ai/ha): 100
Plant response rating, Leafy Spurge (leafy spurge; 16 g ai/ha): 95
Plant response rating, Leafy Spurge (leafy spurge; 31 g ai/ha): 98
Plant response rating, Leafy Spurge (leafy spurge; 62 g ai/ha): 100
Plant response rating, Leafy Spurge (leafy spurge; 125 g ai/ha): 100
Plant response rating, Leafy Spurge (leafy spurge; 250 g ai/ha): 100
Plant response rating, Chickweed (chickweed; 16 g ai/ha): 98
Plant response rating, Chickweed (chickweed; 31 g ai/ha): 100
Plant response rating, Chickweed (chickweed; 62 g ai/ha): 100
Plant response rating, Chickweed (chickweed; 125 g ai/ha): 100
Plant response rating, Chickweed (chickweed; 250 g ai/ha): 100

N#Cc1cccc(Oc2ncc(Cl)cn2)c1-n1cc(OC(F)F)cn1 [Compound 97]
Plant response rating, Surinam Grass (surinam grass; 16 g ai/ha): 0
Plant response rating, Surinam Grass (surinam grass; 31 g ai/ha): 10
Plant response rating, Surinam Grass (surinam grass; 62 g ai/ha): 50
Plant response rating, Surinam Grass (surinam grass; 125 g ai/ha): 90
Plant response rating, Surinam Grass (surinam grass; 250 g ai/ha): 100
Plant response rating, Dallisgrass (dallisgrass; 16 g ai/ha): 75
Plant response rating, Dallisgrass (dallisgrass; 31 g ai/ha): 98
Plant response rating, Dallisgrass (dallisgrass; 62 g ai/ha): 100
Plant response rating, Dallisgrass (dallisgrass; 125 g ai/ha): 100
Plant response rating, Dallisgrass (dallisgrass; 250 g ai/ha): 100
Plant response rating, Sowthistle (sowthistle; 16 g ai/ha): 100
Plant response rating, Sowthistle (sowthistle; 31 g ai/ha): 100
Plant response rating, Sowthistle (sowthistle; 62 g ai/ha): 100
Plant response rating, Sowthistle (sowthistle; 125 g ai/ha): 100
Plant response rating, Sowthistle (sowthistle; 250 g ai/ha): 100
Plant response rating, Dayflower, VA (dayflower; 16 g ai/ha): 35
Plant response rating, Dayflower, VA (dayflower; 31 g ai/ha): 80
Plant response rating, Dayflower, VA (dayflower; 62 g ai/ha): 98
Plant response rating, Dayflower, VA (dayflower; 125 g ai/ha): 98
Plant response rating, Dayflower, VA (dayflower; 250 g ai/ha): 100
Plant response rating, Bluegrass (bluegrass; 16 g ai/ha): 5
Plant response rating, Bluegrass (bluegrass; 31 g ai/ha): 35
Plant response rating, Bluegrass (bluegrass; 62 g ai/ha): 75
Plant response rating, Bluegrass (bluegrass; 125 g ai/ha): 98
Plant response rating, Bluegrass (bluegrass; 250 g ai/ha): 100
Plant response rating, Quackgrass (quackgrass; 16 g ai/ha): 0
Plant response rating, Quackgrass (quackgrass; 31 g ai/ha): 35
Plant response rating, Quackgrass (quackgrass; 62 g ai/ha): 50
Plant response rating, Quackgrass (quackgrass; 125 g ai/ha): 95
Plant response rating, Quackgrass (quackgrass; 250 g ai/ha): 100
Plant response rating, Leafy Spurge (leafy spurge; 16 g ai/ha): 98
Plant response rating, Leafy Spurge (leafy spurge; 31 g ai/ha): 98
Plant response rating, Leafy Spurge (leafy spurge; 62 g ai/ha): 100
Plant response rating, Leafy Spurge (leafy spurge; 125 g ai/ha): 100
Plant response rating, Leafy Spurge (leafy spurge; 250 g ai/ha): 100
Plant response rating, Chickweed (chickweed; 16 g ai/ha): 100
Plant response rating, Chickweed (chickweed; 31 g ai/ha): 100
Plant response rating, Chickweed (chickweed; 62 g ai/ha): 100
Plant response rating, Chickweed (chickweed; 125 g ai/ha): 100
Plant response rating, Chickweed (chickweed; 250 g ai/ha): 100
